Test results taken from patent US9173383B2, “Recombinant non-human mammalian model for hepatitis infection and immunopathogenesis” (The University of North Carolina at Chapel Hill, priority 2008, dated 2015).

Columns and labels:
[1] = system: 293T cells transfected with FKBP-Caspase 8; assay: Inducible cell killing in 293T cells co-transfected with eGFP and CMV-promoter driven FKBP-Casp8 (7AAD FACS); type: cell-based
From the text: FIG. 4. Generation of the FKBP-Casp8 fusion gene with inducible cell killing activity. (A) Inducible activation of Caspase 8 through dimerization. The chemical dimerizer AP20187 causes dimerization/activation of Caspase 8 through interaction of adjacent FKBP binding sites. M, myristoylation signal; FKBP, FK506 binding domain; caspase, human activated caspase 8 (fragment Ser217-Aps479. ref) was cloned into the pC4M-Fv2E vector (Ariad Pharmaceuticals) to express the FKBP2-Casp8 fusion protein whose activation is induced by dimerization with AP20187. (B-C) Dose-dependent induction of apoptosis in cells transfected with FKBP-Caspase 8. 293T cells were co-transfected with plasmids expressing eGFP alone, or with CMV-promoter driven FKBP-Casp8. Transfected cells were cultured for 30 hours and then various amounts of AP20187 dimerizer was added. The cells were then cultured for 24 hours, harvested, stained with 7AAD, and analyzed by FACS for GFP and 7AAD. (B) GFP+ (transfected) cells were gated and the percentage of dead cells (7AAD+) was analyzed. (C) GFP− (untransfected bystander) cells were similarly analyzed. At least 3 independent experiments are repeated.
The FKBP-Caspase8 fusion gene with inducible cell killing activity was constructed (FIG. 4; and Chang et al. 2003. Activation of procaspases by FK506 binding protein-mediated oligomerization. Sci STKE 2003:PL1). […] Therefore, FKBP-Casp8 activation by AP20187 kills target cells expressing the gene but not bystander cells, an important point for depleting specific target cells in vivo.

HepG2 cells = assay: Hepatocyte-specific apoptosis with Alb-FKBP-Casp8 in HepG2 cells (7AAD FACS); type: cell-based; conditions: AP20187 2 nM, 24 hours
From the text: (§1) FIG. 5. Generation of Alb-FKBP-Casp8 transgenic DKO (AFC8/DKO) mice. (A) The Alb-FKBP-Casp8 transgene structure and AFC8/DKO-hu HSC/Hep mice: the FKBP2Casp8 fusion gene was cloned into the liver specific transgenic construct with the Albumin promoter (see Heckel et al. 1990. Neonatal bleeding in transgenic mice expressing urokinase-type plasminogen activator. Cell 62:447-56). (B) Hepatocyte-specific apoptosis with expression from the albumin promoter/enhancer. […] As described in FIG. 6B, the FKBP-Casp8 gene controlled by CMV enhancer or the hepatocyte-specific albumin promoter was co-transfected with GFP-expressing plasmid in 293T and HepG2 cells. Transfected cells were cultured for 30 hours and AP20187 dimerizer (2 nM) was added to the culture medium. The cells were then cultured for 24 hours, harvested, stained with 7AAD, and analyzed for GFP and 7AAD. GFP+ cells were analyzed for 7AAD uptake (dead cells). (C) Generation of Alb-FKBP-Casp8/DKO transgenic mice. Standard transgenic mouse procedure was used to inject the transgene construct into fertilized DKO embryos. In the initial screening of 11 mice from two injections, one transgenic founder was identified. […]

293T cells = assay: Hepatocyte-specific apoptosis with Alb-FKBP-Casp8 in 293T cells (7AAD FACS); type: cell-based; conditions: AP20187 2 nM, 24 hours
From the text: as §1

murine hepatocytes = assay: Dimer injection in AFC8/DKO transgenic mice: mouse liver damage (plasma ALT, H&E); type: in vivo
Method: (§2) FIG. 9. […] AFC8/DKO transgenic mice were treated with AP20187 (5 μg/g). A. Plasma ALT levels were measured at 24 hr and 72 hr (and 3-6 days, not shown) post treatment. […] Two non-TG DKO mice were used as controls (dashed line, background). B. Livers were harvested at 24 h after the 2nd injection and H&E stained. […] V, vein. C. […] AFC8/DKO or DKO mice were treated with AP20187 (5 μg/g) one hour prior to intra-splenic injection of human hepatocytes (2×10e6/mouse). Sera were collected at 80 days post transfer and human albumin levels were determined by ELISA. […] AFC8/DKO transgenic mice were treated with AP20187 (5 μg/g). Plasma ALT levels were measured at 24 hr and 72 hr (and 3-6 days, not shown) post treatment (FIG. 9A). […] Two non-TG DKO mice were used as controls (dashed line, background). Livers were harvested at 24 h after the 2nd injection and H&E stained (FIG. 9B). […] V, vein. […] AFC8/DKO or DKO mice were treated with AP20187 (5 μg/g) one hour prior to intra-splenic injection of human hepatocytes (2×10e6/mouse). Sera were collected at 80 days post transfer and human albumin levels were determined by ELISA.

[2] = system: human hepatocyte engraftment; assay: Human hepatocyte engraftment in AP20187-treated AFC8/DKO mice (human albumin ELISA); type: in vivo, mouse
Method: as §2

FKBP-Casp8 = conditions: 0.25, 1, 4 and 10 mg/kg, peritoneal; cited from earlier work
Ova-specific human IgG = assay: Immunization of DKO-hu HSC mice, Ova-specific human IgG induction; type: in vivo; conditions: DKO-hu HSC mouse
From the text: FIG. 8. Antigen-Fc fusion proteins give enhanced antigen-specific IgG induction in vivo.
Human IgG+ B cells were increased by activating human T cells in the spleen in vitro with anti-CD3/CD28 mAb (FIG. 7). […] Ova-specific human IgG induction is enhanced by using the fusion protein between the same chicken ovalbumin protein with the Fc domain of human IgG (FIG. 8).

human T and B cells = assay: Ova vaccination of DKO-hu mice, Ova-specific T and B cell responses; type: in vivo, mouse; conditions: 3 weeks post vaccination
Method: FIG. 1. Long-term, stable human hemato-lymphopoiesis in HSC-DKO Mice. Human fetal liver CD34+ cells were injected intra-hepatically in newborn (1-3 days old) DKO mice. At 12-50 weeks post transplant, the human CD45^+, murine CD45^− cells in PBMC, lymph node (LN), spleen, bone marrow and thymus were analyzed by multi-color FACS. A: Human CD45 reconstitution (12-16 weeks old) in 5 cohorts of DKO-hu HSC mice from 5 independent donor fetal livers. Shown is average % human CD45+ cells in PB of reconstituted DKO-hu HSC mice. Error bars indicate standard errors of each cohort (n=numbers of mice/cohort). B: Human cells reconstitution in PBMC of the transplanted mice. […] Human T cells from a DKO-hu mouse at 50 weeks are analyzed for expression of CD45RO and CD69. […] Human T proliferation is measured by 3-H thymidine incorporation for 16 hr after 3 days post co-culture. […] H: DKO-hu mice are vaccinated with Ova protein and Ova-specific T cell recall response is measured at 3 weeks post vaccination. […] Human T cell proliferation is measured as above.
Human T cells are negatively selected by both mouse MHC/APC and human MHC/APC because both human and mouse antigen presenting cells (APC) are detected in the mouse thymus (see Traggiai et al. 2004. Development of a human adaptive immune system in cord blood cell-transplanted mice. Science 304:104-7). […]

[3] = various amounts of AP20187, 24 hours

Molecule: CC[C@H](C(=O)N1CCCC[C@H]1C(=O)O[C@H](CCc1ccc(OC)c(OC)c1)c1cccc(OCC(=O)NCC(CNC(=O)COc2cccc([C@@H](CCc3ccc(OC)c(OC)c3)OC(=O)[C@@H]3CCCCN3C(=O)[C@@H](CC)c3cc(OC)c(OC)c(OC)c3)c2)CN(C)C)c1)c1cc(OC)c(OC)c(OC)c1 [AP20187]
- effect on cells transfected with only GFP expressing gene [1]: no detectable effect
- death of GFP+/FKBP-Casp8+ (transfected) cells, 7AAD+ [1, 3]: led to death of GFP+/FKBP-Casp8+ cells
- death of GFP− (untransfected bystander) cells [1, 3]: not GFP− bystander cells
- cell killing (7AAD uptake of GFP+ cells) with Alb-FKBP-Casp8 (HepG2 cells): functions in HepG2
- cell killing (7AAD uptake of GFP+ cells) with Alb-FKBP-Casp8 (293T cells): not 293T cells
- liver H&E staining (murine hepatocytes; 24 h after the 2nd injection, TG livers): Accumulation of fat droplets
- mouse liver damage (murine hepatocytes; AFC8/DKO mice, 5 μg/g): transient mouse liver damage
- plasma ALT levels (murine hepatocytes; second injection 6 days after 1st injection, 5 μg/g): elevated ALT levels
- human albumin levels in sera (ELISA) ([2]; 5 μg/g one hour prior to intra-splenic human hepatocytes, 80 days post transfer): Enhanced human albumin levels
- enhanced human hepatocyte engraftment ([2]; dimer injection in AFC8/DKO mice): 50-100 ×
- enhanced human hepatocyte engraftment ([2]; one injection of dimerizers): 100 ×
- inducing Caspase8 activation and target cell depletion (FKBP-Casp8): effective
- toxicity in mice (FKBP-Casp8): No toxicity is observed

B1: chicken ovalbumin protein: chicken ovalbumin protein used as immunization antigen (protein, UniProt P01012 2-386, looked up)
Ovalbumin: GSIGAASMEFCFDVFKELKVHHANENIFYCPIAIMSALAMVYLGAKDSTRTQINKVVRFDKLPGFGDSIEAQCGTSVNVHSSLRDILNQITKPNDVYSFSLASRLYAEERYPILPEYLQCVKELYRGGLEPINFQTAADQARELINSWVESQTNGIIRNVLQPSSVDSQTAMVLVNAIVFKGLWEKAFKDEDTQAMPFRVTEQESKPVQMMYQIGLFRVASMASEKMKILELPFASGTMSMLVLLPDEVSGLEQLESIINFEKLTEWTSSNVMEERKIKVYLPRMKMEEKYNLTSVLMAMGITDVFSSSANLSGISSAESLKISQAVHAAHAEINEAGREVVGSAEAGVDAASVSEEFRADHPFLFCIKHIATNAVLFFGRCVSP
- Ova-specific human IgG (Ova-specific human IgG): very low levels
- Ova-specific human T and B cell responses (human T and B cells): induces Ova-specific human T and B cell responses
